Data published in patent US12156857B2, “Composition for promoting ketone body production” (Meiji Co., Ltd., priority 2016, dated 2024).

Assays:
Format in all cases: in vivo, Male Wistar rats
[1] = test system: ketone body production; assay: Selection of amino acid promoting ketone body production: blood β-hydroxybutyric acid after amino acid plus MCT feeding; conditions: rats, until 6 hours; for % ΔAUC (%): % relative value of area under the blood concentration-curve ΔAUC of β-hydroxybutyric acid, control group = 100 / % ΔCmax (%): % relative value of maximum blood concentration ΔCmax of β-hydroxybutyric acid, control group = 100: overnight fasting, amino acid 1.0 mmol/kg oral, then caprylic triglyceride (MCT) 3.0 g/kg oral, control water + MCT; for both % ΔCmax and % ΔAUC of β-hydroxybutyric acid compared with control group fed with water: amino acid 1.0 mmol/kg oral + MCT 3.0 g/kg oral
Experimental: (§1) In the following Examples, the blood β-hydroxybutyric acid concentration was measured with a β-hydroxybutyric acid measuring instrument for self-inspection (Precision Xceed manufactured by Abbott).
In the following Examples, the promotion of ketone body production was evaluated as follows. Specifically, blood was collected from the caudal vein of rats under fasting to measure the blood concentration (mmol/L) of β-hydroxybutyric acid (bHB) as an index of the ketone body in the blood. The measured value was defined as an initial value (0 hours). The rats were grouped into a control group and an experimental group, and fed with test samples. Thereafter, the transition of the blood bHB concentration until after 6 hours from the initial value was graphed. A reference view for determining the maximum blood concentration (Cmax) and area under the blood concentration-curve (AUC) of bHB is shown in FIG. 1A. A value obtained by subtracting the measured value at the initial value (0 hours) from the measured value at the time of each measurement was calculated, and defined as an amount of change in blood β-hydroxybutyric acid concentration (ΔbHB concentration) (FIG. 1B). Then, for the amount of change in blood β-hydroxybutyric acid concentration (ΔbHB concentration), the maximum blood concentration (ΔCmax) and area under the blood concentration-curve (ΔAUC) until after 6 hours from the initial value (0 hours) were calculated (FIG. 1B).
A % relative value (% ΔCmax (%)) of the maximum blood concentration ΔCmax of β-hydroxybutyric acid for the experimental group when the maximum blood concentration ΔCmax of β-hydroxybutyric acid for the control group was assumed to be 100 was determined according to the following calculation formula.
A % relative value (% ΔAUC (%)) of the area under the blood concentration-curve ΔAUC of blood β-hydroxybutyric acid for the experimental group when the area under the blood concentration-curve ΔAUC of blood β-hydroxybutyric acid for the control group was assumed to be 100 was determined according to the following calculation formula.
Male Wistar rats (obtained from Japan SLC, Inc.) were acclimated for one week and then used for testing. Blood was collected from the caudal vein of the rats under overnight fasting to measure the blood concentration (mmol/L) of β-hydroxybutyric acid (bHB) as an index of the ketone body in the blood. The rats were grouped (n=8 for each group) so that the averages of the body weights and the β-hydroxybutyric acid concentrations for the respective groups were as equal as possible. Then, water was orally fed in an amount of 10 mL/kg of the body weight to the control group, and aqueous solutions of various amino acids (manufactured by Wako Pure Chemical Industries, Ltd.) were orally fed in an amount of 1.0 mmol/kg of the body weight to the experimental group. Immediately after feeding of water or each of the aqueous amino acid solutions, caprylic triglyceride (manufactured by Tokyo Chemical Industry Co., Ltd.), which is medium-chain fatty acid oil and fat (MCT), was orally fed in an amount of 3.0 g/kg of the body weight to the groups. Blood was collected from the caudal vein 1, 2, 3, 4, 5, and 6 hours after feeding of MCT to measure the blood β-hydroxybutyric acid concentration.

[2] = test system: ketone body production; assay: Effect of citrulline or leucine on ketone body production in feeding of medium-chain fatty acid oil and fat; conditions: rats, four-hour fasting; amino acid 1.5 mmol/kg oral + caprylic triglyceride (MCT) 4.5 g/kg oral; until 6 hours
Experimental: as §1
(§2) In the following Examples, the promotion of ketone body production was evaluated as follows. Specifically, blood was collected from the caudal vein of rats under fasting to measure the blood concentration (mmol/L) of β-hydroxybutyric acid (bHB) as an index of the ketone body in the blood. The measured value was defined as an initial value (0 hours). The rats were grouped into a control group and an experimental group, and fed with test samples. Thereafter, the transition of the blood bHB concentration until after 6 hours from the initial value was graphed. […] A value obtained by subtracting the measured value at the initial value (0 hours) from the measured value at the time of each measurement was calculated, and defined as an amount of change in blood β-hydroxybutyric acid concentration (ΔbHB concentration) (FIG. 1B). Then, for the amount of change in blood β-hydroxybutyric acid concentration (ΔbHB concentration), the maximum blood concentration (ΔCmax) and area under the blood concentration-curve (ΔAUC) until after 6 hours from the initial value (0 hours) were calculated (FIG. 1B). […]

[3] = test system: ketone body production; assay: Effect of citrulline amount on ketone body production in feeding of medium-chain fatty acid oil and fat; conditions: rats, four-hour fasting; citrulline 1.5, 2.25 or 3.0 mmol/kg + MCT 4.5 g/kg oral constant; until 6 hours
Experimental: as §1, §2

**Q.** How did the “% ΔAUC (%): % relative value of area under the blood concentration-curve ΔAUC of β-hydroxybutyric acid, control group = 100” value (shortened to “% ΔAUC (%): % relative value of area”) [1] turn out when `CC(C)C[C@H](N)C(=O)O` [Leucine (Leu), leucine] was run?
**A.** 110.5 ± 21.1%

**Q.** What about the “% ΔCmax (%): % relative value of maximum blood concentration ΔCmax of β-hydroxybutyric acid, control group = 100” value (“% ΔCmax (%): % relative value” below) [1] of the same compound?
**A.** 130.1 ± 31.8%

**Q.** What about the “both % ΔCmax and % ΔAUC of β-hydroxybutyric acid compared with control group fed with water” value (shortened to “both % ΔCmax and % ΔAUC”) [1] of the same compound?
**A.** higher than those for the control group

**Q.** And the “ketone body production compared with MCT fed alone (ΔbHB, ΔAUC, ΔCmax, FIGS. 2 to 7)” value [2]?
**A.** the ketone body production was promoted

**Q.** How did the “% ΔAUC (%): % relative value of area” value [1] turn out when `NC(=O)CC[C@H](N)C(=O)O` [Glutamine (Gln), glutamine] was run?
**A.** 103.6 ± 30.7%

**Q.** What about the “% ΔCmax (%): % relative value” value [1] of the same compound?
**A.** 121.2 ± 44.6%

**Q.** And the “both % ΔCmax and % ΔAUC” value [1]?
**A.** higher than those for the control group

**Q.** Which results are given for `NC(=O)NCCC[C@H](N)C(=O)O` [Citrulline (Cit), citrulline]?
**A.** % ΔAUC (%): % relative value of area under the blood concentration-curve ΔAUC of β-hydroxybutyric acid, control group = 100 [1]: 105.4 ± 37.2%; % ΔCmax (%): % relative value of maximum blood concentration ΔCmax of β-hydroxybutyric acid, control group = 100 [1]: 112.8 ± 25.5%; both % ΔCmax and % ΔAUC of β-hydroxybutyric acid compared with control group fed with water [1]: higher than those for the control group; ketone body production compared with MCT fed alone (ΔbHB, ΔAUC, ΔCmax, FIGS. 2 to 7) [2]: the ketone body production was promoted; amount of ketone bodies produced as a function of citrulline intake amount (% ΔAUC, % ΔCmax, FIGS. 8 and 9) [3]: the amount of the ketone bodies produced varied according to the intake amount of citrulline (Cit)

**Q.** `N[C@@H](CC(=O)O)C(=O)O` [Aspartic acids (Asp), aspartic acid] was tested. Which “% ΔAUC (%): % relative value of area” value [1] did it give?
**A.** 107.5 ± 30.7%

**Q.** And the “% ΔCmax (%): % relative value” value [1]?
**A.** 108.8 ± 23.6%

**Q.** And the “both % ΔCmax and % ΔAUC” value [1]?
**A.** higher than those for the control group

**Q.** Which “% ΔAUC (%): % relative value of area” value [1] does the source give for `NCCS(=O)(=O)O` [Taurine (Tau), taurine] here?
**A.** 103.6 ± 23.0%

**Q.** What about the “% ΔCmax (%): % relative value” value [1] of the same compound?
**A.** 137.8 ± 21.8%

**Q.** And the “both % ΔCmax and % ΔAUC” value [1]?
**A.** higher than those for the control group

**Q.** What does the source list for `N[C@@H](CS)C(=O)O` [Cysteine (Cys), cysteine]?
**A.** % ΔAUC (%): % relative value of area under the blood concentration-curve ΔAUC of β-hydroxybutyric acid, control group = 100 [1]: 128.3 ± 22.2%; % ΔCmax (%): % relative value of maximum blood concentration ΔCmax of β-hydroxybutyric acid, control group = 100 [1]: 151.9 ± 23.8%; both % ΔCmax and % ΔAUC of β-hydroxybutyric acid compared with control group fed with water [1]: higher than those for the control group
